Experimental findings from article PMC10458307, “New Scaffolds of Proteasome Inhibitors: Boosting Anticancer Potential by Exploiting the Synergy of In Silico and In Vitro Methodologies” (Pharmaceuticals, 2023) are described below.

Assay [1] addresses T1, isolated human 20S proteasome, C-L activity (Homo sapiens, UniProt P28072+Q99436).
T1 construct: human purified erythrocyte-derived 20S proteasome; purchased Enzo Life Sciences, Inc; host or cells: human erythrocytes (natural source)
Kind of assay: Proteasome inhibition assay in isolated human 20S proteasomes (Proteasome-Glo), C-L activity. Format: biochemical. Conditions: for inhibition at 10 µM: read-out: percentage of proteasome inhibition, C-L, isolated 20S proteasome; for percentage of proteasome inhibition, C-L, isolated human 20S proteasome: at 100 µM, Table 1 legend: bortezomib positive control 10 µM. From the text:
In this assay, the peptide substrates are bound to aminoluciferin (Suc-LLVY-AML for CT-L activity, Z-nLPnLD-AML for C-L, and Z-LRR-AML for T-L), leading the cleavage of these substrates by the proteasome to the release of free aminoluciferin, which is the substrate of the buffer-contained luciferase.
To evaluate human purified erythrocyte-derived 20S proteasome inhibitory activity of the chosen compounds, the Proteasome-Glo™ 3-substrate system (Promega Corporation, Madison, WI, USA) was employed. The Proteasome-Glo™ reagents of the three proteolytic activities were prepared according to the manufacturer’s instructions, aliquoted, and stored at either −20 °C or 4 °C, avoiding freezing–thaw cycles. […] The purified 20S proteasome (Enzo Life Sciences, Inc., Farmingdale, NY, USA) was diluted in HEPES buffer 10 mM, pH 7.4, to a concentration experimentally adjusted to the signal/noise ratio obtained with each particular lot of Proteasome-Glo™ reagent, in order to have a good compromise between sensitivity and linear response. […] All assays were performed in white-walled multiwell plates (Thermo Scientific™ Sterilin™ White Microtiter™ plates, Thermo Fisher Scientific, Paisley, UK) in duplicates. The proteasome solution (25 μL) was added to each well first, then the diluted solutions of the assayed compounds (25 μL), and lastly the Proteasome-Glo™ Reagent (50 μL). […] Reagents were added to the plate well on ice, and the plate was then transferred to the plate luminometer (SpectraMax®, Molecular Devices, LLC, San Jose, CA, USA) set at 37 °C, gently mixed for 30 s, and the measurements were immediately started in kinetic mode, with data collected every 5 min for at least 60 min.
All compounds were dissolved in DMSO at a concentration of 10 mM and stored at −20 °C or 4 °C. Solutions of the test compounds were prepared at their adequate dilutions in 10 mM HEPES buffer pH 7.6 before each experiment.
To calculate the proteasome activity over time, the value of mean relative luminescence units (RLU) of blank wells at each respective time point was subtracted, and then the ratio between mean RLU of the sample and mean RLU of the positive control wells was calculated for each time point and expressed as percentage.

The target of assay [2] is T2, 20S proteasome in HT-29 cell lysates, CT-L activity (Homo sapiens, UniProt P28074).
T2 sequence (P28074 60-263): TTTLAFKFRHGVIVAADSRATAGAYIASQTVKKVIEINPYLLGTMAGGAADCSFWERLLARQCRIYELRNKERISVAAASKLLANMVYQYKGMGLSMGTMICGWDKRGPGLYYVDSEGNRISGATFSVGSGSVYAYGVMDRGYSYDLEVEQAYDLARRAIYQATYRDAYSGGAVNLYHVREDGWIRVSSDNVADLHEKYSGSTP
T2 sequence (P20618 29-241 partner): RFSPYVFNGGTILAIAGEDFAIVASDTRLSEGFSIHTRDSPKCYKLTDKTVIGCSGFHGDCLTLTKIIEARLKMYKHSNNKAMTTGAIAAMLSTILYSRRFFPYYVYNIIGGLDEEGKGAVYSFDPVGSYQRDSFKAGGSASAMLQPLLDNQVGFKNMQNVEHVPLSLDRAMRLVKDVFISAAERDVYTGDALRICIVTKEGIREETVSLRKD
The assay can be described thus: Proteasome inhibition assay in cell lysates, HT-29, CT-L. Conditions: for inhibition at 10 µM: read-out: percentage of proteasome inhibition, CT-L, cell lysates HT-29, at 10 µM; for inhibition at 100 µM: read-out: percentage of proteasome inhibition, CT-L, cell lysates HT-29, at 100 µM.
Description: (§1) Cells were obtained from several cultured cell lines: Jurkat, K562, HT-29, and HCT116. Pellets with 20 × 10^6 cells were prepared and washed with cold sterile phosphate buffered saline (PBS), 1×, pH 7.4 (Gibco, Thermo Fisher Scientific, Paisley, UK). […] Cells were resuspended in buffer containing 50 mM TRIS-HCl pH 7.4 (Nzytech, Lisboa, Portugal), 5 mM MgCl2 (≥98% purity, Merck, Hamburg, Germany), 1 mM DTT (Merck, Hamburg, Germany), 2 mM ATP (≥98% purity, Enzo Life Sciences Inc., Farmingdale, NY, USA), and 250 mM saccharose (Merck, Hamburg, Germany). Glass beads (Merck, Hamburg, Germany) equivalent to the volume of the cell suspension were added, and the mixture was vortexed for 2 min at 4 °C. Beads and cell debris were removed using 5 min centrifugation at 1000× g and 4 °C, followed by 20 min of centrifugation at 10,000× g at 4 °C. Cell lysates containing proteasomes were resuspended in “activity buffer” [50 mM TRIS-HCl (pH 7.4), 5 mM MgCl2, 1 mM DTT, 2 mM ATP (≥98% purity, Enzo Life Sciences Inc., Farmingdale, NY, USA), and 500 µM EDTA (≥98% purity, Merck, Hamburg, Germany)]. Protein concentration was determined using the Pierce™ BCA protocol (Thermo Fisher Scientific, Rockford, IL, USA). […] DMSO was added in an equal volume as used for the untreated compounds as a way to assess/control its influence in the assay. Untreated cells were used as control. In each well of a 96-well plate, 25 µL of lysate were seeded in duplicate with 25 µL of the compound to test; in the control, 25 µL of activity buffer were added to the 25 µL of lysate. A blank (50 µL of activity buffer) was added to the wells in quadruplicate. Cell lysates, pre-treated or not with different concentrations of the test compounds, were incubated for 30 min at 37 °C. […] Stock solutions (10 mM) of each substrate were prepared in DMSO, diluted in activity buffer, and 50 µL were added to all wells (final concentration of each substrate = 100 µM), followed by an incubation at 37 °C for 60 min. Samples fluorescence was measured at an excitation wavelength of 360 nm and emission of 465 nm; the fluorescence measures were performed using the GloMax-Multi + Detection System (Promega Corp., Madison, WI, USA). Activity was evaluated in fluorescence units, after being converted to percentage of proteasome inhibition and, whenever possible, expressed as IC50 by plotting the inhibition data of each compound at different concentrations against the log of the concentration of the inhibitor, using the GraphPad Prism software version 7. At least eight different concentrations of the test compounds were used.

Assay [3] addresses T3, 20S proteasome in Jurkat cell lysates, C-L activity (Homo sapiens, UniProt P28072).
T3 sequence (P28072 35-239 limits assumed): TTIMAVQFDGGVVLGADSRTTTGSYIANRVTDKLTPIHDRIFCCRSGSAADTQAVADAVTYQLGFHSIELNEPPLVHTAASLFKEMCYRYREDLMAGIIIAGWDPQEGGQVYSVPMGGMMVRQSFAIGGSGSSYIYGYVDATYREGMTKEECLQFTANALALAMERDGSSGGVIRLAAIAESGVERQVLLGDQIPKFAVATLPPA
T3 sequence (Q99436 44-277 partner): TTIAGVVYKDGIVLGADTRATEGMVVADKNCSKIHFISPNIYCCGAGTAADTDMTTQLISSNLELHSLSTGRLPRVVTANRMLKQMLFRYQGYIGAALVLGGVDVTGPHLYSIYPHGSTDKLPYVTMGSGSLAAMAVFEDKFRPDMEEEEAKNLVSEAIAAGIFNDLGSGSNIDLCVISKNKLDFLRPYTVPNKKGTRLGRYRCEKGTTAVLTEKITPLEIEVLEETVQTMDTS
Kind of assay: Proteasome inhibition assay in cell lysates, Jurkat, C-L. Conditions: for inhibition at 10 µM: read-out: percentage of proteasome inhibition, C-L, cell lysates Jurkat, at 10 µM; for inhibition at 100 µM: read-out: percentage of proteasome inhibition, C-L, cell lysates Jurkat, at 100 µM.
Description: as §1

Assay [4] deals with T4, 20S proteasome in Jurkat cell lysates, CT-L activity (Homo sapiens, UniProt P28074).
T4 sequence (P28074 60-263): T2 sequence (P28074 60-263)
T4 sequence (P20618 29-241 partner): T2 sequence (P20618 29-241 partner)
The assay can be described thus: Proteasome inhibition assay in cell lysates, Jurkat, CT-L. Conditions: for inhibition at 10 µM: read-out: percentage of proteasome inhibition, CT-L, cell lysates Jurkat, at 10 µM; for inhibition at 100 µM: read-out: percentage of proteasome inhibition, CT-L, cell lysates Jurkat, at 100 µM.
Description: Cells were obtained from several cultured cell lines: Jurkat, K562, HT-29, and HCT116. Pellets with 20 × 10^6 cells were prepared and washed with cold sterile phosphate buffered saline (PBS), 1×, pH 7.4 (Gibco, Thermo Fisher Scientific, Paisley, UK). The preparation of the lysates from several cell lines was performed based on the methodology described by Gavioli et al. [67]. Cells were resuspended in buffer containing 50 mM TRIS-HCl pH 7.4 (Nzytech, Lisboa, Portugal), 5 mM MgCl2 (≥98% purity, Merck, Hamburg, Germany), 1 mM DTT (Merck, Hamburg, Germany), 2 mM ATP (≥98% purity, Enzo Life Sciences Inc., Farmingdale, NY, USA), and 250 mM saccharose (Merck, Hamburg, Germany). Glass beads (Merck, Hamburg, Germany) equivalent to the volume of the cell suspension were added, and the mixture was vortexed for 2 min at 4 °C. Beads and cell debris were removed using 5 min centrifugation at 1000× g and 4 °C, followed by 20 min of centrifugation at 10,000× g at 4 °C. Cell lysates containing proteasomes were resuspended in “activity buffer” [50 mM TRIS-HCl (pH 7.4), 5 mM MgCl2, 1 mM DTT, 2 mM ATP (≥98% purity, Enzo Life Sciences Inc., Farmingdale, NY, USA), and 500 µM EDTA (≥98% purity, Merck, Hamburg, Germany)]. Protein concentration was determined using the Pierce™ BCA protocol (Thermo Fisher Scientific, Rockford, IL, USA). […] DMSO was added in an equal volume as used for the untreated compounds as a way to assess/control its influence in the assay. Untreated cells were used as control. In each well of a 96-well plate, 25 µL of lysate were seeded in duplicate with 25 µL of the compound to test; in the control, 25 µL of activity buffer were added to the 25 µL of lysate. A blank (50 µL of activity buffer) was added to the wells in quadruplicate. Cell lysates, pre-treated or not with different concentrations of the test compounds, were incubated for 30 min at 37 °C. […] Stock solutions (10 mM) of each substrate were prepared in DMSO, diluted in activity buffer, and 50 µL were added to all wells (final concentration of each substrate = 100 µM), followed by an incubation at 37 °C for 60 min. Samples fluorescence was measured at an excitation wavelength of 360 nm and emission of 465 nm; the fluorescence measures were performed using the GloMax-Multi + Detection System (Promega Corp., Madison, WI, USA). Activity was evaluated in fluorescence units, after being converted to percentage of proteasome inhibition and, whenever possible, expressed as IC50 by plotting the inhibition data of each compound at different concentrations against the log of the concentration of the inhibitor, using the GraphPad Prism software version 7. At least eight different concentrations of the test compounds were used.

[5] abbreviates: at 100 µM, Table 2 legend: bortezomib 10 µM.
[6] abbreviates: Table 2 legend: bortezomib 10 µM.

Values joined by “and” are separate entries in the source; they are usually repeats but may differ in a detail not shown here. Equal entries are not always repeated.

As to `C#CCCN1CCN(c2ccc(-n3c(=O)ccc4cnc5ccc(-c6ccc(N)nc6)cc5c43)cc2C(F)(F)F)CC1` [Compound 4, 9-(6-Aminopyridin-3-yl)-1-(4-(4-(but-3-yn-1-yl)piperazin-1-yl)-3-(trifluoromethyl)phenyl)benzo[h][1,6]naphthyridin-2(1H)-one], the inhibition at 10 µM stood at 5.8% in assay [1], 10.1% in assay [2], 8.16% in assay [3] and 10.5% in assay [4]. Further, the “percentage of proteasome inhibition, C-L, isolated human 20S proteasome” value in assay [1] is 77.65% and 78%. Moreover, the results for the IC50 in assay [2], in assay [3] and in assay [4] were 31.3 µM, 27 µM and 24.3 µM, respectively. For the same molecule, the “percentage of proteasome inhibition, CT-L, cell lysates HT-29” value in assay [2] (setting [5]) amounted to 98%. The inhibition at 100 µM turned out to be 97.9% in assay [2] (setting [6]), 98.9% in assay [3] (setting [6]) and 98% in assay [4] (setting [6]). For the same molecule, the “percentage of proteasome inhibition, C-L, cell lysates Jurkat” value in assay [3] (setting [5]) came to 99%.

As to `Cc1ccc(/C(=N/NS(=O)(=O)c2ccc([N+](=O)[O-])cc2)Sc2cc(Cl)c(C)cc2S(N)(=O)=O)cc1` [Compound 3], the inhibition at 10 µM in assay [1] turned out to be 9.9%; in assay [2] it was 0%; in assay [3], 0%; in assay [4], 0%. For the same molecule, in assay [1], the “percentage of proteasome inhibition, C-L, isolated human 20S proteasome” value was 88.38% and 88%. In assay [2] (setting [5]), the “percentage of proteasome inhibition, CT-L, cell lysates HT-29” value is 31%. The inhibition at 100 µM in assay [2] (setting [6]) was found to be 31.4%; in assay [3] (setting [6]) it was 25.4%; in assay [4] (setting [6]) it was 32.8%. Also, in assay [3] (setting [5]), the “percentage of proteasome inhibition, C-L, cell lysates Jurkat” value worked out at 25%. Further, the “percentage of proteasome inhibition, CT-L, cell lysates Jurkat” value in assay [4] (setting [5]) came to 33%.

`Cc1ccc2ccccc2c1CSc1ncnc2c1ncn2C1OC(CO)C(O)C1O` (stereo not shown) [Compound 1]: the inhibition at 10 µM in assay [1] stood at 0%; in assay [2], 0%; in assay [3], 2.27%; in assay [4], 0%. Besides, the “percentage of proteasome inhibition, C-L, isolated human 20S proteasome” value in assay [1] was 54.47% and 55%. Also, in assay [2], the IC50 is 90.8 µM. For the same molecule, in assay [2] (setting [5]), the “percentage of proteasome inhibition, CT-L, cell lysates HT-29” value worked out at 62%. Further, the inhibition at 100 µM in assay [2] (setting [6]) amounted to 62.1%; in assay [3] (setting [6]) it was 19.4%; in assay [4] (setting [6]), 53.5%. The “percentage of proteasome inhibition, C-L, cell lysates Jurkat” value in assay [3] (setting [5]) came to 19%. Besides, the “percentage of proteasome inhibition, CT-L, cell lysates Jurkat” value in assay [4] (setting [5]) is 54%.

As to `CC(C)C[C@H](NC(=O)[C@H](Cc1ccccc1)NC(=O)c1cnccn1)B(O)O` [Bortezomib, bortezomib, reference compound], the inhibition at 10 µM in assay [1] was determined as 33.8%. Further, the “percentage of proteasome inhibition, C-L, isolated human 20S proteasome” value in assay [1] was 92.80% and 93%. In addition, the “percentage of proteasome inhibition, CT-L, cell lysates HT-29” value is 97.99% in assay [2] (at 10 µM); 99.37% and 99% in assay [2] (setting [5]). The “percentage of proteasome inhibition, C-L, cell lysates Jurkat” value is 92.00% in assay [3] (at 10 µM); 94.22% and 94% in assay [3] (setting [5]). Moreover, the “percentage of proteasome inhibition, CT-L, cell lysates Jurkat” value is 99.63% in assay [4] (at 10 µM); 99.30% and 99% in assay [4] (setting [5]).

Regarding `CC(C)c1nc(CN(C)C(=O)N[C@@H](CCN2CCOCC2)C(=O)N[C@H](CC[C@H](Cc2ccccc2)NC(=O)OCc2cncs2)Cc2ccccc2)cs1` [Compound 5, cobicistat, reference compound], the inhibition at 10 µM in assay [1], in assay [2], in assay [3] and in assay [4] was 0% in each case. Besides, in assay [1], the “percentage of proteasome inhibition, C-L, isolated human 20S proteasome” value is 33.57% and 34%. The IC50 in assay [2] amounted to 84.3 µM. Moreover, in assay [2] (setting [5]), the “percentage of proteasome inhibition, CT-L, cell lysates HT-29” value was found to be 81%. Also, the results for the inhibition at 100 µM in assay [2] (setting [6]), in assay [3] (setting [6]) and in assay [4] (setting [6]) were 81.2%, 36.2% and 63.7%, respectively. Moreover, the “percentage of proteasome inhibition, C-L, cell lysates Jurkat” value in assay [3] (setting [5]) was determined as 36%. The “percentage of proteasome inhibition, CT-L, cell lysates Jurkat” value in assay [4] (setting [5]) is recorded as 64%.

As for `O=C1c2ccccc2C(=O)c2c(Nc3ccc(S(=O)(=O)N(CCO)CCO)cc3)ccc(O)c21` [Compound 2], the inhibition at 10 µM in assay [1] came to 90.8%; in assay [2], 2.11%; in assay [3], 26.9%; in assay [4], 8.23%. In assay [1], the “percentage of proteasome inhibition, C-L, isolated human 20S proteasome” value is 97.86% and 98%. Also, the IC50 in assay [2] was 73.8 µM; in assay [3], 42.4 µM; in assay [4], 73.2 µM. Besides, the “percentage of proteasome inhibition, CT-L, cell lysates HT-29” value in assay [2] (setting [5]) was 62%. In addition, the inhibition at 100 µM in assay [2] (setting [6]) worked out at 62.2%; in assay [3] (setting [6]), 73.5%; in assay [4] (setting [6]), 72.1%. In addition, the “percentage of proteasome inhibition, C-L, cell lysates Jurkat” value in assay [3] (setting [5]) was 74%. Besides, in assay [4] (setting [5]), the “percentage of proteasome inhibition, CT-L, cell lysates Jurkat” value came out at 72%.

The term inhibition denotes the relative decrease from the control value, in per cent. In general, IC50 refers to the concentration that gives 50% inhibition. Higher therefore signals weaker potency in that assay.
